Measured values from patent publication US11696913B2, “Prolonged ectoparasite-controlling agent for animal” (MITSUI CHEMICALS AGRO, INC., priority 2017, dated 2023).
Read-outs that look alike come from different tables or passages of the source.

Columns and labels:
Ctenocephalides felis [1] = experiment: Systemic treatment in-vivo test with cat flea on rats; settings: intraperitoneal injection; for inhibition in vivo at 2 mg/kg / inhibition in vivo at 10 mg/kg: Ctenocephalides felis, ip
Description: (§1) Systemic Treatment In-Vivo Test with American Dog Tick Nymph and Cat Flea on Rats
(§2) Type of study and overall study design: The method is a randomized non-blinded efficacy study in accordance with European animal welfare requirements. Rats (Rattus norvegicus) were randomized based on pre-treatment flea counts. The efficacy of treatment was determined by comparison of the flea and tick counts of different treatment groups versus the placebo-treated control group. The experimental unit was the individual study animal. Method and route of administration: The compound was applied in a suitable solvent and carrier (more specifically, added to glycerol formal; in case of poorly soluble compounds, a solvent mixture with up to 25% by volume of N-methyl pyrrolidone may be used.) considering the individual body weight as an intraperitoneal injection.
(§3) Experimental infestation: On the day of treatment and weekly thereafter, 30 ticks (D. variabilis nymphs) were released onto the back of each rat, and 30 fleas (C. felis) were released onto the back of each rat 24 h later.
(§4) Tick and Flea counting: Rats were thoroughly examined and ticks and fleas were manually removed 48 h (±4 h) after tick infestation and 24 h after flea infestation. Live fleas and live attached engorged ticks were counted. In non-evident cases, engorgement status was evaluated by squeezing the tick on a filter paper to find traces of blood as sign for engorgement.

Ctenocephalides felis [2] = experiment: Topical treatment in-vivo test with cat flea on rats; settings: topical spot-on
Description: (§5) Topical Treatment In-Vivo Test with American Dog Tick Nymph and Cat Flea on Rats
(§6) Type of study and overall study design: The method is a randomized non-blinded efficacy study in accordance with European animal welfare requirements. Rats (Rattus norvegicus) were randomized based on pre-treatment flea counts. The efficacy of treatment was determined by comparison of the flea and tick counts of different treatment groups versus the placebo-treated control group. The experimental unit was the individual study animal.
(§7) Method and route of administration: The compound was applied in a suitable solvent and carrier (more specifically, added to the following mixture: 33.3% by weight propylene carbonate, […] N-methylpyrrolidone, 0.1% by weight BHA, 0.05% by weight BHT) considering the individual body weight as topical spot-on between the shoulder blades directly onto the skin.
as §3
as §4, with “(+4” for “(±4”

Dermacentor variabilis [3] = experiment: Systemic treatment in-vivo test with American dog tick nymph on rats; settings: intraperitoneal injection; for inhibition in vivo at 2 mg/kg / inhibition in vivo at 10 mg/kg: Dermacentor variabilis, ip
Description: as §1, §2, §3, §4

Ixodes ricinus = experiment: In vitro contact test with adult hard ticks (Ixodes ricinus); settings: read-out: acaricidal activity
In short: (§8)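 Acaricidal activity = % ticks dead or moribund after 48 h contact with acetone-deposited compound on vial walls (e.g., 900 ppm solution → 5 μg/cm^2). Ambient conditions for R. sanguineus, 21° C./85% rel. hum. for other species; heat challenge at 45-50° C. separated climbers from moribund ticks.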

Dermacentor variabilis [4] = experiment: In vitro contact test with adult hard ticks (Dermacentor variabilis); settings: read-out: acaricidal activity
In short: as §8

Spodoptera litura = experiment: Insecticidal testing against common cutworm; type: in vivo; settings: foliar, 144 h, concentration 100 ppm, cabbage leaf dip, second-stage larvae, after 6 days, read-out: pesticidal rate
Excerpt: Insecticidal Testing Against Common Cutworm (Spodoptera litura)

Ctenocephalides felis [5] = experiment: In vitro contact test with fleas; settings: read-out: insecticidal activity
In short: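 Activity is the percentage of fleas dead or moribund at 48 h, judged by immobility or uncoordinated movement after tapping. Tubes were coated by evaporating acetone solutions (900 ppm gives 5 μg/cm^2), then held 5-10 adult fleas of both sexes at room temperature and ambient humidity.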

Plutella xylostella = experiment: Insecticidal testing against diamondback moth; type: in vivo; settings: foliar, 144 h, concentration 100 ppm, cabbage leaf dip, third-stage larvae, after 6 days, read-out: pesticidal rate
Excerpt: Insecticidal Testing Against Diamondback Moth (Plutella xylostella)

Rhipicephalus sanguineus = experiment: In vitro contact test with adult hard ticks (Rhipicephalus sanguineus); settings: read-out: acaricidal activity
In short: as §8

Ctenocephalides felis [6] = experiment: Ctenocephalides felis in-vitro feeding test with fleas (CTECFE oral); settings: 48 hours, read-out: insecticidal feeding activity
In short: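 Scored as percent fleas killed (0–100%) 48 hours after feeding began. Compound, dissolved in DMSO and diluted into citrated cattle blood, was offered via a parafilm membrane to roughly 20 adult male and female C. felis at about 37° C.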

Laodelphax striatellus = experiment: Insecticidal testing against small brown planthopper; type: in vivo; settings: 144 h, concentration 100 ppm, sprayed rice seedlings, after 6 days, read-out: pesticidal rate
In short: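 Acetone solution of compound at a set concentration sprayed onto rice seedlings, air-dried, then exposed to 10 planthoppers (one group). Held at 25° C; survival rate recorded after 6 days.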

[7] = test system: Rhipicephalus (Boophilus) microplus; experiment: In vitro injection test with Rhipicephalus (Boophilus) microplus (BOOPMI Inj); settings: 168 h, laid fertile eggs after 7 days, read-out: acaricidal activity
In short: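 Five engorged adult females each get a 1 μl abdominal injection of compound dissolved and diluted in DMSO. Kept 7 days at 28° C./85% rel. hum.; percent activity rates egg laying and egg fertility (0% all fertile, 100% none laid or infertile).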

Dermacentor variabilis [8] = experiment: Topical treatment in-vivo test with American dog tick nymph on rats; settings: topical spot-on, 25 mg/kg
Description: as §5, §6, §7, §3
as §4, with “(+4” for “(±4”

[9] = 2 mg/kg, SD 2, read-out: Geometric mean percent reduction in live tick (Dermacentor variabilis) counts compared to untreated control rats
[10] = 2 mg/kg, SD 9, read-out: Geometric mean percent reduction in live tick (Dermacentor variabilis) counts compared to untreated control rats
[11] = 2 mg/kg, SD 16, read-out: Geometric mean percent reduction in live tick (Dermacentor variabilis) counts compared to untreated control rats

SMILES: O=C(CNC(=O)c1ccc(C2=NOC(c3cc(Cl)cc(C(F)(F)F)c3)(C(F)(F)F)C2)c2ccccc12)NCC(F)(F)F (centres unmarked) [Afoxolaner, afoxolaner, reference compound]
- Geometric mean percent reduction in live flea (Ctenocephalides felis) counts compared to untreated control rats (Ctenocephalides felis [1]; 2 mg/kg, SD 2): 69%
- Geometric mean percent reduction in live flea (Ctenocephalides felis) counts compared to untreated control rats (Ctenocephalides felis [1]; 2 mg/kg, SD 9): 20%
- Geometric mean percent reduction in live flea (Ctenocephalides felis) counts compared to untreated control rats (Ctenocephalides felis [1]; 2 mg/kg, SD 16): 48%
- Geometric mean percent reduction in live flea (Ctenocephalides felis) counts compared to untreated control rats (Ctenocephalides felis [1]; 10 mg/kg, SD 2): 100%
- Geometric mean percent reduction in live flea (Ctenocephalides felis) counts compared to untreated control rats (Ctenocephalides felis [1]; 10 mg/kg, SD 9): 97%
- Geometric mean percent reduction in live flea (Ctenocephalides felis) counts compared to untreated control rats (Ctenocephalides felis [1]; 10 mg/kg, SD 16): 60%
- Geometric mean percent reduction in live flea (Ctenocephalides felis) counts compared to untreated control rats (Ctenocephalides felis [1]; 10 mg/kg, SD 23): 0%
- Geometric mean percent reduction in live flea (Ctenocephalides felis) counts compared to untreated control rats (Ctenocephalides felis [2]; 10 mg/kg, SD 2): 100%
- Geometric mean percent reduction in live flea (Ctenocephalides felis) counts compared to untreated control rats (Ctenocephalides felis [2]; 10 mg/kg, SD 9): 99%
- Geometric mean percent reduction in live flea (Ctenocephalides felis) counts compared to untreated control rats (Ctenocephalides felis [2]; 10 mg/kg, SD 16): 51%
- Geometric mean percent reduction in live flea (Ctenocephalides felis) counts compared to untreated control rats (Ctenocephalides felis [2]; 10 mg/kg, SD 23): 16%
- Geometric mean percent reduction in live tick (Dermacentor variabilis) counts compared to untreated control rats (Dermacentor variabilis [3]; 2 mg/kg, SD 2): 86%
- Geometric mean percent reduction in live tick (Dermacentor variabilis) counts compared to untreated control rats (Dermacentor variabilis [3]; 2 mg/kg, SD 9): 53%
- Geometric mean percent reduction in live tick (Dermacentor variabilis) counts compared to untreated control rats (Dermacentor variabilis [3]; 2 mg/kg, SD 16): 5%
- Geometric mean percent reduction in live tick (Dermacentor variabilis) counts compared to untreated control rats (Dermacentor variabilis [3]; 10 mg/kg, SD 2): 100%
- Geometric mean percent reduction in live tick (Dermacentor variabilis) counts compared to untreated control rats (Dermacentor variabilis [3]; 10 mg/kg, SD 9): 10%
- Geometric mean percent reduction in live tick (Dermacentor variabilis) counts compared to untreated control rats (Dermacentor variabilis [3]; 10 mg/kg, SD 16): 78%
- Geometric mean percent reduction in live tick (Dermacentor variabilis) counts compared to untreated control rats (Dermacentor variabilis [3]; 10 mg/kg, SD 23): 0%

SMILES: CN(C(=O)c1ccc(F)cc1)c1cccc(C(=O)Nc2c(I)cc(C(F)(C(F)(F)F)C(F)(F)F)cc2OC(F)F)c1F [Compound 90]
- pest or weed control at 1 µg/cm2, 1 µg/cm2 (Ixodes ricinus; dose 1 μg/cm^2, 48 h): 90%
- pest or weed control at 5 µg/cm2, 5 µg/cm2 (Ixodes ricinus; dose 5 μg/cm^2, 48 h): 90%
- pest or weed control at 0.2 µg/cm2, 0.2 µg/cm2 (Dermacentor variabilis [4]; dose 0.2 μg/cm^2, 48 h): 90%
- pest or weed control at 1 µg/cm2, 1 µg/cm2 (Dermacentor variabilis [4]; dose 1 μg/cm^2, 48 h): 90%
- pest or weed control at 100 ppm (Spodoptera litura): ≥ 70%
- pest or weed control at 0.04 µg/cm2, 0.04 µg/cm2 (Ctenocephalides felis [5]; dose 0.04 μg/cm^2, dead or moribund fleas after 48 h): 95%
- pest or weed control at 0.2 µg/cm2, 0.2 µg/cm2 (Ctenocephalides felis [5]; dose 0.2 μg/cm^2, dead or moribund fleas after 48 h): 95%
- pest or weed control at 1 µg/cm2, 1 µg/cm2 (Ctenocephalides felis [5]; dose 1 μg/cm^2, dead or moribund fleas after 48 h): 95%
- pest or weed control at 100 ppm (Plutella xylostella): ≥ 70%
- pest or weed control at 0.2 µg/cm2, 0.2 µg/cm2 (Rhipicephalus sanguineus; dose 0.2 μg/cm^2, 48 h): 90%
- pest or weed control at 1 µg/cm2, 1 µg/cm2 (Rhipicephalus sanguineus; dose 1 μg/cm^2, 48 h): 90%
- pest or weed control at 0.032 ppm (Ctenocephalides felis [6]; dose 0.032 ppm in citrated cattle blood): 95%
- pest or weed control at 0.16 ppm (Ctenocephalides felis [6]; dose 0.16 ppm in citrated cattle blood): 95%
- pest or weed control at 0.8 ppm (Ctenocephalides felis [6]; dose 0.8 ppm in citrated cattle blood): 95%
- pest or weed control at 4 ppm (Ctenocephalides felis [6]; dose 4 ppm in citrated cattle blood): 95%
- pest or weed control at 100 ppm (Laodelphax striatellus): ≥ 70%
- pest or weed control at 6.4 ng ([7]; dose 0.0064 μg/animal injected): 100%
- pest or weed control at 32 ng ([7]; dose 0.032 μg/animal injected): 100%
- pest or weed control at 0.00016 mg ([7]; dose 0.16 μg/animal injected): 100%
- pest or weed control at 0.0008 mg ([7]; dose 0.8 μg/animal injected): 100%
- inhibition in vivo at 2 mg/kg (Dermacentor variabilis [3]; [9]): 100%
- inhibition in vivo at 2 mg/kg (Dermacentor variabilis [3]; [10]): 83%
- inhibition in vivo at 2 mg/kg (Dermacentor variabilis [3]; [11]): 29%

SMILES: CN(C(=O)c1ccccc1)c1cccc(C(=O)Nc2c(Br)cc(C(F)(C(F)(F)F)C(F)(F)F)cc2C(F)(F)F)c1F [Compound (B), reference compound]
- inhibition in vivo at 2 mg/kg (Ctenocephalides felis [1]; 2 mg/kg, SD 2, read-out: Geometric mean percent reduction in live flea (Ctenocephalides felis) counts compared to untreated control rats): 97%
- inhibition in vivo at 2 mg/kg (Ctenocephalides felis [1]; 2 mg/kg, SD 9, read-out: Geometric mean percent reduction in live flea (Ctenocephalides felis) counts compared to untreated control rats): 32%
- inhibition in vivo at 10 mg/kg (Ctenocephalides felis [1]; 10 mg/kg, SD 2, read-out: Geometric mean percent reduction in live flea (Ctenocephalides felis) counts compared to untreated control rats): 100%
- inhibition in vivo at 10 mg/kg (Ctenocephalides felis [1]; 10 mg/kg, SD 9, read-out: Geometric mean percent reduction in live flea (Ctenocephalides felis) counts compared to untreated control rats): 53%
- inhibition in vivo at 10 mg/kg (Ctenocephalides felis [1]; 10 mg/kg, SD 16, read-out: Geometric mean percent reduction in live flea (Ctenocephalides felis) counts compared to untreated control rats): 6%
- Geometric mean percent reduction in live flea (Ctenocephalides felis) counts compared to untreated control rats (Ctenocephalides felis [2]; 25 mg/kg, SD 2): 84%
- Geometric mean percent reduction in live flea (Ctenocephalides felis) counts compared to untreated control rats (Ctenocephalides felis [2]; 25 mg/kg, SD 9): 72%
- Geometric mean percent reduction in live flea (Ctenocephalides felis) counts compared to untreated control rats (Ctenocephalides felis [2]; 25 mg/kg, SD 16): 45%
- Geometric mean percent reduction in live tick (Dermacentor variabilis) counts compared to untreated control rats (Dermacentor variabilis [8]; SD 2): 58%
- Geometric mean percent reduction in live tick (Dermacentor variabilis) counts compared to untreated control rats (Dermacentor variabilis [8]; SD 9): 85%
- Geometric mean percent reduction in live tick (Dermacentor variabilis) counts compared to untreated control rats (Dermacentor variabilis [8]; SD 16): 65%
- Geometric mean percent reduction in live tick (Dermacentor variabilis) counts compared to untreated control rats (Dermacentor variabilis [8]; SD 23): 4%
- inhibition in vivo at 2 mg/kg (Dermacentor variabilis [3]; [9]): 75%
- inhibition in vivo at 2 mg/kg (Dermacentor variabilis [3]; [10]): 63%
- inhibition in vivo at 2 mg/kg (Dermacentor variabilis [3]; [11]): 0%
- inhibition in vivo at 10 mg/kg (Dermacentor variabilis [3]; 10 mg/kg, SD 2, read-out: Geometric mean percent reduction in live tick (Dermacentor variabilis) counts compared to untreated control rats): 100%
- inhibition in vivo at 10 mg/kg (Dermacentor variabilis [3]; 10 mg/kg, SD 9, read-out: Geometric mean percent reduction in live tick (Dermacentor variabilis) counts compared to untreated control rats): 11%
- inhibition in vivo at 10 mg/kg (Dermacentor variabilis [3]; 10 mg/kg, SD 16, read-out: Geometric mean percent reduction in live tick (Dermacentor variabilis) counts compared to untreated control rats): 2%
